Laboratory results from patent US5294611A, “Angiotensin II receptor blocking 2,3,6 substituted quinazolinones” (American Cyanamid Company, priority 1993, dated 1994).
Where two headings read alike, the source gives them in different places.

Tested on: Angiotensin II (AII) vasopressor response
Experiment: AII Challenge: antagonism of angiotensin II vasopressor response in conscious spontaneously hypertensive rats
Type: in vivo, rat (male okamoto-Aoki SHR)
Settings: for inhibition in vivo at 1 mg/kg / inhibition in vivo at 3 mg/kg / inhibition in vivo at 5 mg/kg: Rattus norvegicus; for inhibition in vivo at 1 mg/kg / inhibition in vivo at 3 mg/kg: iv; for inhibition in vivo at 1 mg/kg / inhibition in vivo at 3 mg/kg / inhibition in vivo at 5 mg/kg / Average Change: SHR n=2; for inhibition in vivo at 3 mg/kg / inhibition in vivo at 5 mg/kg: read-out: Inhibition; for inhibition in vivo at 5 mg/kg: po
Method in brief: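 Conscious male SHR (16–20 weeks, ~330 g) cannulated under local procaine, blood pressure recorded via transducer. Angiotensin II (human) 0.05 and 0.1 ug/kg i.v. given before and after test compound dosed i.v., i.p. or orally; response measured as rise in systolic pressure (mmHg).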

Q: With `CCCCc1nc2ccc([C@H]3[C@@H]4CCC[C@@H]4ON3C)cc2c(=O)n1Cc1ccc(-c2ccccc2-c2nnn[nH]2)cc1` (relative stereo) [Example 50] as the compound, how does the inhibition in vivo at 1 mg/kg (0.5 h, 1 mg/kg I.V., AII 0.05 mcg/kg IV, 30 min post dose) read?
A: Its inhibition in vivo at 1 mg/kg is 17%.

Q: What about the inhibition in vivo at 1 mg/kg (0.5 h, 1 mg/kg I.V., AII 0.1 mcg/kg IV, 30 min post dose) of the same compound?
A: The inhibition in vivo at 1 mg/kg was 39%.

Q: What about the inhibition in vivo at 3 mg/kg (0.5 h, 3 mg/kg I.V., AII 0.05 mcg/kg IV, 30 min post dose) of the same compound?
A: Its inhibition in vivo at 3 mg/kg is 64%.

Q: What about the inhibition in vivo at 3 mg/kg (0.5 h, 3 mg/kg I.V., AII 0.1 mcg/kg IV, 30 min post dose) of the same compound?
A: Its inhibition in vivo at 3 mg/kg is 66%.

Q: And the inhibition in vivo at 1 mg/kg (1 h, 1 mg/kg I.V., AII 0.05 mcg/kg IV, 60 min post dose)?
A: Its inhibition in vivo at 1 mg/kg is 17%.

Q: And the inhibition in vivo at 1 mg/kg (1 h, 1 mg/kg I.V., AII 0.1 mcg/kg IV, 60 min post dose)?
A: Its inhibition in vivo at 1 mg/kg is 27%.

Q: What about the inhibition in vivo at 3 mg/kg (1 h, 3 mg/kg I.V., AII 0.05 mcg/kg IV, 60 min post dose) of the same compound?
A: The inhibition in vivo at 3 mg/kg was 70%.

Q: And the inhibition in vivo at 3 mg/kg (1 h, 3 mg/kg I.V., AII 0.1 mcg/kg IV, 60 min post dose)?
A: Its inhibition in vivo at 3 mg/kg is 65%.

Q: And the inhibition in vivo at 1 mg/kg (2 h, 1 mg/kg I.V., AII 0.05 mcg/kg IV, 120 min post dose)?
A: Its inhibition in vivo at 1 mg/kg is 17%.

Q: What about the inhibition in vivo at 1 mg/kg (2 h, 1 mg/kg I.V., AII 0.1 mcg/kg IV, 120 min post dose) of the same compound?
A: The inhibition in vivo at 1 mg/kg was 35%.

Q: What about the inhibition in vivo at 3 mg/kg (2 h, 3 mg/kg I.V., AII 0.05 mcg/kg IV, 120 min post dose) of the same compound?
A: The inhibition in vivo at 3 mg/kg was 66%.

Q: And the inhibition in vivo at 3 mg/kg (2 h, 3 mg/kg I.V., AII 0.1 mcg/kg IV, 120 min post dose)?
A: The inhibition in vivo at 3 mg/kg was 75%.

Q: What about the inhibition in vivo at 1 mg/kg (3 h, 1 mg/kg I.V., AII 0.05 mcg/kg IV, 180 min post dose) of the same compound?
A: Its inhibition in vivo at 1 mg/kg is 25%.

Q: What about the inhibition in vivo at 1 mg/kg (3 h, 1 mg/kg I.V., AII 0.1 mcg/kg IV, 180 min post dose) of the same compound?
A: Its inhibition in vivo at 1 mg/kg is 33%.

Q: What about the inhibition in vivo at 3 mg/kg (3 h, 3 mg/kg I.V., AII 0.05 mcg/kg IV, 180 min post dose) of the same compound?
A: Its inhibition in vivo at 3 mg/kg is 59%.

Q: And the inhibition in vivo at 3 mg/kg (3 h, 3 mg/kg I.V., AII 0.1 mcg/kg IV, 180 min post dose)?
A: Its inhibition in vivo at 3 mg/kg is 68%.

Q: What about the inhibition in vivo at 1 mg/kg (4 h, 1 mg/kg I.V., AII 0.05 mcg/kg IV, 240 min post dose) of the same compound?
A: The inhibition in vivo at 1 mg/kg was -8%.

Q: What about the inhibition in vivo at 1 mg/kg (4 h, 1 mg/kg I.V., AII 0.1 mcg/kg IV, 240 min post dose) of the same compound?
A: Its inhibition in vivo at 1 mg/kg is -16%.

Q: What about the inhibition in vivo at 1 mg/kg (5 h, 1 mg/kg I.V., AII 0.05 mcg/kg IV, 300 min post dose) of the same compound?
A: Its inhibition in vivo at 1 mg/kg is -25%.

Q: And the inhibition in vivo at 1 mg/kg (5 h, 1 mg/kg I.V., AII 0.1 mcg/kg IV, 300 min post dose)?
A: Its inhibition in vivo at 1 mg/kg is -11%.

Q: What about the inhibition in vivo at 1 mg/kg (16.5 h, 1 mg/kg I.V., AII 0.05 mcg/kg IV, 990 min post dose (so in the source)) of the same compound?
A: Its inhibition in vivo at 1 mg/kg is 20%.

Q: And the inhibition in vivo at 1 mg/kg (16.5 h, 1 mg/kg I.V., AII 0.1 mcg/kg IV, 990 min post dose (so in the source))?
A: Its inhibition in vivo at 1 mg/kg is 9%.

Q: What about the inhibition in vivo at 3 mg/kg ([…], 3 mg/kg I.V., AII 0.05 mcg/kg IV, 90 min post dose) of the same compound?
A: Its inhibition in vivo at 3 mg/kg is 80%.

Q: What about the inhibition in vivo at 3 mg/kg ([…], 3 mg/kg I.V., AII 0.1 mcg/kg IV, 90 min post dose) of the same compound?
A: Its inhibition in vivo at 3 mg/kg is 52%.

Q: And the inhibition in vivo at 5 mg/kg (0.5 h, 5 mg/kg P.O., AII 0.05 mcg/kg IV, 30 min post dose)?
A: Its inhibition in vivo at 5 mg/kg is 47%.

Q: And the inhibition in vivo at 5 mg/kg (0.5 h, 5 mg/kg P.O., AII 0.1 mcg/kg IV, 30 min post dose)?
A: The inhibition in vivo at 5 mg/kg was 25%.

Q: What about the inhibition in vivo at 5 mg/kg (1 h, 5 mg/kg P.O., AII 0.05 mcg/kg IV, 60 min post dose) of the same compound?
A: Its inhibition in vivo at 5 mg/kg is 47%.

Q: And the inhibition in vivo at 5 mg/kg (1 h, 5 mg/kg P.O., AII 0.1 mcg/kg IV, 60 min post dose)?
A: The inhibition in vivo at 5 mg/kg was 32%.

Q: And the inhibition in vivo at 5 mg/kg (2 h, 5 mg/kg P.O., AII 0.05 mcg/kg IV, 120 min post dose)?
A: The inhibition in vivo at 5 mg/kg was 68%.

Q: And the inhibition in vivo at 5 mg/kg (3 h, 5 mg/kg P.O., AII 0.05 mcg/kg IV, 180 min post dose)?
A: Its inhibition in vivo at 5 mg/kg is 35%.

Q: And the inhibition in vivo at 5 mg/kg (3 h, 5 mg/kg P.O., AII 0.1 mcg/kg IV, 180 min post dose)?
A: The inhibition in vivo at 5 mg/kg was 18%.

Q: What about the inhibition in vivo at 5 mg/kg ([…], 5 mg/kg P.O., AII 0.05 mcg/kg IV, 90 min post dose) of the same compound?
A: The inhibition in vivo at 5 mg/kg was 53%.

Q: What about the inhibition in vivo at 5 mg/kg ([…], 5 mg/kg P.O., AII 0.1 mcg/kg IV, 90 min post dose) of the same compound?
A: The inhibition in vivo at 5 mg/kg was 52%.

Q: What about the “Average Change” value (1 mg/kg I.V., AII 0.05 mcg/kg IV, 30 min post dose) of the same compound?
A: Its value is 25 mmHg.

Q: What about the “Average Change” value (1 mg/kg I.V., AII 0.05 mcg/kg IV, 60 min post dose) of the same compound?
A: Its value is 25 mmHg.

Q: And the “Average Change” value (1 mg/kg I.V., AII 0.05 mcg/kg IV, 120 min post dose)?
A: Its value is 25 mmHg.

Q: What about the “Average Change” value (1 mg/kg I.V., AII 0.05 mcg/kg IV, 180 min post dose) of the same compound?
A: Its value is 22.5 mmHg.

Q: And the “Average Change” value (1 mg/kg I.V., AII 0.05 mcg/kg IV, 240 min post dose)?
A: The value was 32.5 mmHg.

Q: What about the “Average Change” value (1 mg/kg I.V., AII 0.05 mcg/kg IV, 300 min post dose) of the same compound?
A: Its value is 37.5 mmHg.

Q: What about the “Average Change” value (1 mg/kg I.V., AII 0.05 mcg/kg IV, 990 min post dose (so in the source)) of the same compound?
A: Its value is 24 mmHg.

Q: And the “Average Change” value (1 mg/kg I.V., AII 0.1 mcg/kg IV, 30 min post dose)?
A: Its value is 25 mmHg.

Q: What about the “Average Change” value (1 mg/kg I.V., AII 0.1 mcg/kg IV, 60 min post dose) of the same compound?
A: The value was 30 mmHg.

Q: What about the “Average Change” value (1 mg/kg I.V., AII 0.1 mcg/kg IV, 120 min post dose) of the same compound?
A: The value was 26.5 mmHg.

Q: And the “Average Change” value (1 mg/kg I.V., AII 0.1 mcg/kg IV, 180 min post dose)?
A: Its value is 27.5 mmHg.

Q: And the “Average Change” value (1 mg/kg I.V., AII 0.1 mcg/kg IV, 240 min post dose)?
A: The value was 47.5 mmHg.

Q: And the “Average Change” value (1 mg/kg I.V., AII 0.1 mcg/kg IV, 300 min post dose)?
A: Its value is 45.5 mmHg.

Q: And the “Average Change” value (1 mg/kg I.V., AII 0.1 mcg/kg IV, 990 min post dose (so in the source))?
A: Its value is 37.5 mmHg.

Q: What about the “Average Change” value (3 mg/kg I.V., AII 0.05 mcg/kg IV, 30 min post dose) of the same compound?
A: Its value is 20 mmHg.

Q: And the “Average Change” value (3 mg/kg I.V., AII 0.05 mcg/kg IV, 60 min post dose)?
A: Its value is 16.5 mmHg.

Q: What about the “Average Change” value (3 mg/kg I.V., AII 0.05 mcg/kg IV, 90 min post dose) of the same compound?
A: Its value is 11 mmHg.

Q: What about the “Average Change” value (3 mg/kg I.V., AII 0.05 mcg/kg IV, 120 min post dose) of the same compound?
A: Its value is 18.5 mmHg.

Q: And the “Average Change” value (3 mg/kg I.V., AII 0.05 mcg/kg IV, 180 min post dose)?
A: Its value is 22.5 mmHg.

Q: And the “Average Change” value (3 mg/kg I.V., AII 0.1 mcg/kg IV, 30 min post dose)?
A: The value was 18.5 mmHg.

Q: What about the “Average Change” value (3 mg/kg I.V., AII 0.1 mcg/kg IV, 60 min post dose) of the same compound?
A: Its value is 19 mmHg.

Q: What about the “Average Change” value (3 mg/kg I.V., AII 0.1 mcg/kg IV, 90 min post dose) of the same compound?
A: The value was 26.5 mmHg.

Q: And the “Average Change” value (3 mg/kg I.V., AII 0.1 mcg/kg IV, 120 min post dose)?
A: Its value is 14 mmHg.

Q: And the “Average Change” value (3 mg/kg I.V., AII 0.1 mcg/kg IV, 180 min post dose)?
A: The value was 17.5 mmHg.

Q: What about the “Average Change” value (5 mg/kg P.O., AII 0.05 mcg/kg IV, 30 min post dose) of the same compound?
A: The value was 22.5 mmHg.

Q: What about the “Average Change” value (5 mg/kg P.O., AII 0.05 mcg/kg IV, 60 min post dose) of the same compound?
A: Its value is 22.5 mmHg.

Q: And the “Average Change” value (5 mg/kg P.O., AII 0.05 mcg/kg IV, 90 min post dose)?
A: The value was 20 mmHg.

Q: What about the “Average Change” value (5 mg/kg P.O., AII 0.05 mcg/kg IV, 120 min post dose) of the same compound?
A: Its value is 13.5 mmHg.

Q: What about the “Average Change” value (5 mg/kg P.O., AII 0.05 mcg/kg IV, 180 min post dose) of the same compound?
A: The value was 27.5 mmHg.

Q: And the “Average Change” value (5 mg/kg P.O., AII 0.1 mcg/kg IV, 30 min post dose)?
A: Its value is 32 mmHg.

Q: And the “Average Change” value (5 mg/kg P.O., AII 0.1 mcg/kg IV, 60 min post dose)?
A: The value was 29 mmHg.

Q: And the “Average Change” value (5 mg/kg P.O., AII 0.1 mcg/kg IV, 90 min post dose)?
A: The value was 20.5 mmHg.

Q: And the “Average Change” value (5 mg/kg P.O., AII 0.1 mcg/kg IV, 120 min post dose)?
A: Its value is 22.5 mmHg.

Q: And the “Average Change” value (5 mg/kg P.O., AII 0.1 mcg/kg IV, 180 min post dose)?
A: Its value is 35 mmHg.

Q: What about the Change (single SHR, 5 mg/kg P.O., AII 0.1 mcg/kg IV, 180 min post dose) of the same compound?
A: Its Change is 35 mmHg.
